Experimental data taken from PubChem BioAssay (NCI).
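Step 1: Grow cells in 96-well plates. Step 2: Expose to compound for 48 hours at 5 concentrations. Step 3: Interpolate endpoints linearly; if unreached, use highest concentration. At the TGI there is no net growth.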

Experiments:
Test in all cases: DTP human tumour cell line panel, 48 h
[1] = test system: 786-0 renal
[2] = test system: A498 renal
[3] = test system: ACHN renal
[4] = test system: CCRF-CEM leukemia
[5] = test system: COLO 205 colon
[6] = test system: DLD-1 colon
[7] = test system: DMS 114 small cell lung
[8] = test system: DMS 273 small cell lung
[9] = test system: EKVX NSCLC
[10] = test system: HCC-2998 colon
[11] = test system: HCT-116 colon
[12] = test system: HL-60(TB) leukemia
[13] = test system: HOP-18 NSCLC
[14] = test system: HOP-62 NSCLC
[15] = test system: HOP-92 NSCLC
[16] = test system: HT29 colon
[17] = test system: IGROV1 ovarian
[18] = test system: K-562 leukemia
[19] = test system: KM12 colon
[20] = test system: KM20L2 colon
[21] = test system: LOX IMVI melanoma
[22] = test system: LXFL 529 NSCLC
[23] = test system: MALME-3M melanoma
[24] = test system: MOLT-4 leukemia
[25] = test system: NCI-H23 lung
[26] = test system: NCI-H460 lung
[27] = test system: NCI-H522 lung
[28] = test system: OVCAR-3 ovarian
[29] = test system: OVCAR-5 ovarian
[30] = test system: OVCAR-8 ovarian
[31] = test system: RPMI-8226 leukemia
[32] = test system: RXF 393 renal
[33] = test system: RXF-631 renal
[34] = test system: SF-268 CNS
[35] = test system: SF-295 CNS
[36] = test system: SF-539 CNS
[37] = test system: SK-MEL-2 melanoma
[38] = test system: SK-MEL-28 melanoma
[39] = test system: SK-OV-3 ovarian
[40] = test system: SNB-19 CNS
[41] = test system: SNB-75 CNS
[42] = test system: SNB-78 CNS
[43] = test system: SW-620 colon
[44] = test system: TK-10 renal
[45] = test system: U251 CNS
[46] = test system: UACC-257 melanoma
[47] = test system: UO-31 renal
[48] = test system: XF 498 CNS
[49] = test system: A549 NSCLC
[50] = test system: CAKI-1 renal
[51] = test system: HCT-15 colon
[52] = test system: M14 melanoma
[53] = test system: M19-MEL melanoma
[54] = test system: NCI-H226 lung
[55] = test system: OVCAR-4 ovarian
[56] = test system: SK-MEL-5 melanoma
[57] = test system: SN12C renal
[58] = test system: SR leukemia
[59] = test system: UACC-62 melanoma
[60] = test system: BT-549 breast
[61] = test system: DU-145 prostate
[62] = test system: MDA-MB-231 breast
[63] = test system: MDA-MB-435
[64] = test system: NCI/ADR-RES ovarian
[65] = test system: PC-3 prostate
[66] = test system: T-47D breast

COc1ccc(/C=[N+](\[O-])[C@H](COCc2ccccc2)c2ccccc2)cc1
TGI [1]: > 100 µM
TGI [2]: > 100 µM
TGI [3]: > 100 µM
TGI [4]: > 100 µM
TGI [5]: > 100 µM
TGI [6]: > 100 µM
TGI [7]: > 100 µM
TGI [8]: > 100 µM
TGI [9]: > 100 µM
TGI [10]: > 100 µM
TGI [11]: > 100 µM
TGI [12]: 77.2 µM
TGI [13]: > 100 µM
TGI [14]: > 100 µM
TGI [15]: > 100 µM
TGI [16]: > 100 µM
TGI [17]: > 100 µM
TGI [18]: > 100 µM
TGI [19]: > 100 µM
TGI [20]: > 100 µM
TGI [21]: > 100 µM
TGI [22]: > 100 µM
TGI [23]: > 100 µM
TGI [24]: > 100 µM
TGI [25]: > 100 µM
TGI [26]: > 100 µM
TGI [27]: > 100 µM
TGI [28]: > 100 µM
TGI [29]: > 100 µM
TGI [30]: > 100 µM
TGI [31]: > 100 µM
TGI [32]: > 100 µM
TGI [33]: > 100 µM
TGI [34]: > 100 µM
TGI [35]: > 100 µM
TGI [36]: > 100 µM
TGI [37]: > 100 µM
TGI [38]: > 100 µM
TGI [39]: > 100 µM
TGI [40]: > 100 µM
TGI [41]: > 100 µM
TGI [42]: > 100 µM
TGI [43]: > 100 µM
TGI [44]: > 100 µM
TGI [45]: > 100 µM
TGI [46]: > 100 µM
TGI [47]: > 100 µM
TGI [48]: > 100 µM

CC1(C)OC2C(=O)OC(COCc3ccccc3)C2O1 (stereo not drawn)
TGI [1]: > 100 µM
TGI [2]: > 100 µM
TGI [49]: > 100 µM
TGI [3]: > 100 µM
TGI [50]: > 100 µM
TGI [4]: > 100 µM
TGI [5]: > 100 µM
TGI [6]: > 100 µM
TGI [8]: > 100 µM
TGI [9]: > 100 µM
TGI [10]: > 100 µM
TGI [11]: > 100 µM
TGI [51]: > 100 µM
TGI [12]: > 100 µM
TGI [13]: > 100 µM
TGI [14]: > 100 µM
TGI [15]: > 100 µM
TGI [16]: > 100 µM
TGI [17]: > 100 µM
TGI [18]: > 100 µM
TGI [19]: > 100 µM
TGI [20]: > 100 µM
TGI [21]: > 100 µM
TGI [22]: > 100 µM
TGI [52]: > 100 µM
TGI [53]: > 100 µM
TGI [23]: > 100 µM
TGI [24]: > 100 µM
TGI [54]: > 100 µM
TGI [25]: > 100 µM
TGI [26]: > 100 µM
TGI [28]: > 100 µM
TGI [55]: > 100 µM
TGI [29]: > 100 µM
TGI [30]: > 100 µM
TGI [31]: > 100 µM
TGI [32]: > 100 µM
TGI [33]: > 100 µM
TGI [34]: > 100 µM
TGI [35]: > 100 µM
TGI [36]: > 100 µM
TGI [37]: > 100 µM
TGI [38]: > 100 µM
TGI [56]: > 100 µM
TGI [57]: > 100 µM
TGI [41]: > 100 µM
TGI [42]: > 100 µM
TGI [58]: > 100 µM
TGI [43]: > 100 µM
TGI [44]: > 100 µM
TGI [45]: > 100 µM
TGI [46]: > 100 µM
TGI [59]: > 100 µM
TGI [47]: > 100 µM

c1ccc2c(NCCCCCCCCNc3c4ccccc4nc4ccccc34)c3ccccc3nc2c1
TGI [1]: 1.95 µM
TGI [2]: 2.68 µM
TGI [3]: 1.82 µM
TGI [60]: 2.76 µM
TGI [50]: 2.18 µM
TGI [4]: 2.15 µM
TGI [5]: 1.61 µM
TGI [6]: 2.4 µM
TGI [7]: 2.42 µM
TGI [8]: 1.26 µM
TGI [61]: 1.94 µM
TGI [9]: 2.8 µM
TGI [10]: 3.61 µM
TGI [11]: 1.26 µM
TGI [51]: 2.48 µM
TGI [13]: 5.19 µM
TGI [14]: 2.24 µM
TGI [15]: 2.87 µM
TGI [16]: 1.57 µM
TGI [17]: 1.8 µM
TGI [19]: 1.59 µM
TGI [20]: 2.55 µM
TGI [22]: 1.81 µM
TGI [52]: 2.52 µM
TGI [53]: 2.27 µM
TGI [23]: 2.63 µM
TGI [62]: 1.74 µM
TGI [63]: 2.35 µM
TGI [54]: 2.59 µM
TGI [25]: 1.73 µM
TGI [26]: 1.33 µM
TGI [27]: 1.88 µM
TGI [64]: 41.9 µM
TGI [28]: 3.22 µM
TGI [55]: 2.41 µM
TGI [29]: 2.2 µM
TGI [30]: 2.45 µM
TGI [65]: 1.67 µM
TGI [32]: 0.387 µM
TGI [33]: 1.93 µM
TGI [34]: 2.1 µM
TGI [35]: 2.21 µM
TGI [36]: 1.15 µM
TGI [37]: 2.23 µM
TGI [56]: 2.71 µM
TGI [39]: 2.71 µM
TGI [57]: 2.18 µM
TGI [40]: 3.43 µM
TGI [41]: 2.62 µM
TGI [58]: 0.755 µM
TGI [43]: 1.71 µM
TGI [66]: 3.2 µM
TGI [44]: 5.98 µM
TGI [45]: 2.09 µM
TGI [46]: 3.02 µM
TGI [59]: 2.19 µM
TGI [47]: 2.76 µM
TGI [48]: 2.25 µM

Cc1c(C(=O)CC(=O)C(=O)NC2C3CC4CC(C3)CC2C4)[n+](=O)c2ccccc2n1[O-] (stereo not drawn)
TGI [1]: > 100 µM
TGI [2]: > 100 µM
TGI [49]: > 100 µM
TGI [3]: > 100 µM
TGI [50]: > 100 µM
TGI [4]: > 100 µM
TGI [5]: > 100 µM
TGI [7]: > 100 µM
TGI [8]: > 100 µM
TGI [9]: > 100 µM
TGI [10]: > 100 µM
TGI [11]: > 100 µM
TGI [51]: > 100 µM
TGI [12]: > 100 µM
TGI [13]: > 100 µM
TGI [14]: > 100 µM
TGI [15]: > 100 µM
TGI [16]: > 100 µM
TGI [17]: > 100 µM
TGI [18]: > 100 µM
TGI [19]: > 100 µM
TGI [20]: > 100 µM
TGI [21]: > 100 µM
TGI [22]: > 100 µM
TGI [52]: > 100 µM
TGI [53]: > 100 µM
TGI [23]: > 100 µM
TGI [24]: > 100 µM
TGI [54]: > 100 µM
TGI [25]: > 100 µM
TGI [26]: > 100 µM
TGI [27]: > 100 µM
TGI [28]: 85.1 µM
TGI [55]: > 100 µM
TGI [29]: > 100 µM
TGI [30]: > 100 µM
TGI [31]: > 100 µM
TGI [32]: > 100 µM
TGI [33]: > 100 µM
TGI [34]: > 100 µM
TGI [35]: > 100 µM
TGI [36]: > 100 µM
TGI [37]: > 100 µM
TGI [38]: > 100 µM
TGI [56]: > 100 µM
TGI [39]: > 100 µM
TGI [57]: > 100 µM
TGI [40]: > 100 µM
TGI [41]: > 100 µM
TGI [42]: > 100 µM
TGI [58]: > 100 µM
TGI [43]: > 100 µM
TGI [44]: > 100 µM
TGI [45]: > 100 µM
TGI [46]: > 100 µM
TGI [59]: > 100 µM
TGI [47]: > 100 µM
TGI [48]: > 100 µM
